Source: patent US6573274B1, “Sulfonamide compounds and uses thereof as medicines” (Fujisawa Pharmaceutical Co. Ltd., priority 1998, dated 2003)
Counter-ions that a name gives are not always drawn.

Row | melting point [°C] | SMILES
1 | 153 to 154 | CCCCS(=O)(=O)NC(=O)c1ccc2nc(C)n(Cc3ccc(OCCC)cc3Cl)c2n1 [Example 13, 5-(1-butanesulfonylcarbamoyl)-3-(2-chloro-4-(1-propoxy)benzyl)-2-methyl-3H-imidazo[4,5-b]pyridine]
2 | 156 to 157 | CCCCCOc1ccc(Cn2c(C)nc3ccc(C(=O)NS(=O)(=O)c4ccc(Br)s4)nc32)c(Cl)c1 [Example 23, 5-[(5-bromothiophen-2-yl)sulfonylcarbamoyl]-3-[2-chloro-4-(1-pentyloxy)benzyl]-2-methyl-3H-imidazo[4,5-b]pyridine]
3 | 138 to 141 | CCCCS(=O)(=O)NC(=O)c1ccc2nc(C)n(Cc3ccc(OC(C)C)cc3Cl)c2n1 [Example 15, 5-(1-butanesulfonylcarbamoyl)-3-(2-chloro-4-isopropoxybenzyl)-2-methyl-3H-imidazo-[4,5-b]pyridine]
4 | 208 to 209 | CCCCS(=O)(=O)NC(=O)c1ccc2nc(C)n(Cc3ccc(-c4ccco4)cc3Cl)c2n1 [Example 69, 5-(1-butanesulfonylcarbamoyl)-3-[2-chloro-4-(2-furyl)benzyl]-2-methyl-3H-imidazo[4,5-b]pyridine]
5 | 128 to 131 | CCCCCOc1ccc(Cn2c(C)nc3ccc(C(=O)NS(=O)(=O)CCCCC)nc32)c(Cl)c1 [Example 20, 3-(2-chloro-4-(1-pentyloxy)benzyl)-2-methyl-5-(1-pentanesulfonylcarbamoyl)-3H-imidazo[4,5-b]pyridine]
6 | 242 to 244 | CCC/C=C/S(=O)(=O)NC(=O)c1ccc2nc(C)n(Cc3ncc(NC(=O)OC(C)C)cc3Cl)c2n1 [Example 136, 3-[(5-(N-(isopropoxycarbonyl)amino)-3-chloropyridin-2-yl)methyl]-2-methyl-5-((E)-1-penten-1-ylsulfonylcarbamoyl)-3H-imidazo[4,5-b]pyridine]
7 | 185 to 186 | CCCCCS(=O)(=O)NC(=O)c1ccc2nc(C)n(Cc3ccc(NC)cc3Cl)c2n1 [Example 42, 3-(2-chloro-4-(methylamino)benzyl)-2-methyl-5-(1-pentanesulfonylcarbamoyl)-3H-imidazo[4,5-b]pyridine]
8 | 154 to 155 | CCCCCOc1ccc(Cn2c(C)nc3ccc(C(=O)NS(=O)(=O)c4ccc(Cl)s4)nc32)c(Cl)c1 [Example 24, 3-[2-chloro-4-(1-pentyloxy)benzyl]-2-methyl-5-[(5-chlorothiophen-2-yl)sulfonylcarbamoyl]-3H-imidazo[4,5-b]pyridine]
9 | 164 to 166 | CCCCS(=O)(=O)NC(=O)c1cc(C)c2nc(C)n(Cc3ccc(OCCC)cc3Cl)c2n1 [Example 36, 5-(1-butanesulfonylcarbamoyl)-3-[2-chloro-4-(1-propoxy)benzyl]-2,7-dimethyl-3H-imidazo[4,5-b]pyridine]

The remaining lines, values behind:

Row | SMILES | melting point [°C]
10 | CCCCCOc1ccc(Cn2c(CC)nc3ccc(C(=O)NS(=O)(=O)CCCC)nc32)c(Cl)c1 [Example 66, 5-(1-butanesulfonylcarbamoyl)-3-(2-chloro-4-(1-pentyloxy)benzyl)-2-ethyl-3H-imidazo[4,5-b]pyridine] | 140 to 142
11 | CCCCCS(=O)(=O)NC(=O)c1ccc2nc(C)n(Cc3ccc(N(C)C(=O)C(C)(C)C)cc3Cl)c2n1 [Example 64, 3-(2-chloro-4-(methyl(pivaloyl)amino)benzyl)-2-methyl-5-(1-pentanesulfonylcarbamoyl)-3H-imidazo[4,5-b]pyridine] | 207 to 208
12 | CCC/C=C/S(=O)(=O)NC(=O)c1ccc2nc(C)n(Cc3ncc(NC(=O)OCC)cc3Cl)c2n1 (as salt: sodium) [Example 133, 3-[(3-chloro-5-(N-(ethoxycarbonyl)amino)pyridin-2-yl)methyl]-2-methyl-5-((E)-1-penten-1-ylsulfonylcarbamoyl)-3H-imidazo[4,5-b]pyridine] | 236 to 239
13 | CCCCCS(=O)(=O)NC(=O)c1ccc2nc(C)n(Cc3ccc(NC(=O)OC(C)(C)C)cc3Cl)c2n1 [Example 97, 3-(4-(N-(tert-butoxycarbonyl)amino)-2-chlorobenzyl)-2-methyl-5-(1-pentanesulfonylcarbamoyl)-3H-imidazo[4,5-b]pyridine] | 222 to 224
14 | CCCCCS(=O)(=O)NC(=O)c1ccc2nc(C)n(Cc3ccc(N(C)C(=O)OC(C)(C)C)cc3Cl)c2n1 [Example 41, 3-(4-(N-(tert-butoxycarbonyl)-N-methylamino)-2-chlorobenzyl)-2-methyl-5-(1-pentanesulfonylcarbamoyl)-3H-imidazo[4,5-b]pyridine] | 160 to 161
15 | CCCNS(=O)(=O)NC(=O)c1ccc2nc(C)n(Cc3ccc(OCC)cc3Cl)c2n1 [Example 10, 3-(2-chloro-4-ethoxybenzyl)-2-methyl-5-((1-propylaminosulfonyl)carbamoyl)-3H-imidazo[4,5-b]pyridine] | 152 to 155
16 | CCCCCS(=O)(=O)NC(=O)c1ccc2nc(C)n(Cc3ccc(OCCC)cc3Cl)c2n1 [Example 12, 3-(2-chloro-4-(1-propoxy)benzyl)-2-methyl-5-(1-pentanesulfonylcarbamoyl)-3H-imidazo[4,5-b]pyridine] | 131 to 134
17 | Cc1cc(C(=O)NS(=O)(=O)c2ccc(Br)s2)nc2c1nc(C)n2Cc1ccc(-c2ccccc2)cc1Cl.[Na] | > 250
18 | CCCCCOc1ccc(Cn2c(C)nc3c(C)cc(C(=O)NS(=O)(=O)CCCCC)nc32)c(Cl)c1 [Example 38, 3-[2-chloro-4-(1-pentyloxy)benzyl]-2,7-dimethyl-5-(1-pentanesulfonylcarbamoyl)-3H-imidazo[4,5-b]pyridine] | 149 to 150
19 | CCCCCS(=O)(=O)NC(=O)c1ccc2nc(C)n(Cc3ccc(OCCCC)cc3Cl)c2n1 [Example 17, 3-(2-chloro-4-(1-butoxy)benzyl)-2-methyl-5-(1-pentanesulfonylcarbamoyl)-3H-imidazo[4,5-b]pyridine] | 133 to 136
20 | CCCCOc1ccc(Cn2c(C)nc3ccc(C(=O)NS(=O)(=O)CCCC)nc32)c(Cl)c1 [Example 18, 5-(1-butanesulfonylcarbamoyl)-3-(2-chloro-4-(1-butoxy)benzyl)-2-methyl-3H-imidazo[4,5-b]pyridine] | 144 to 145
21 | CCC/C=C/S(=O)(=O)NC(=O)c1ccc2nc(C)n(Cc3ccc(NC(=O)OC(C)C)cc3Cl)c2n1 [Example 102, 3-(2-chloro-4-(N-(isopropoxycarbonyl)amino)benzyl)-2-methyl-5-((E)-1-penten-1-ylsulfonylcarbamoyl)-3H-imidazo[4,5-b]pyridine] | 187 to 189
22 | CCCCS(=O)(=O)NC(=O)c1ccc2nc(C)n(Cc3ccc(OC)cc3Cl)c2n1 [Example 6, 5-(1-butanesulfonylcarbamoyl)-3-(2-chloro-4-methoxybenzyl)-2-methyl-3H-imidazo[4,5-b]pyridine] | 175 to 177
23 | CCCCCS(=O)(=O)NC(=O)c1ccc2nc(C)n(Cc3ncc(NC(=O)OCC)cc3Cl)c2n1 [Example 132, 3-[(3-chloro-5-(N-(ethoxycarbonyl)amino)pyridin-2-yl)methyl]-2-methyl-5-(1-pentanesulfonylcarbamoyl)-3H-imidazo[4,5-b]pyridine] | 232 to 233
24 | CCCCCS(=O)(=O)NC(=O)c1ccc2nc(C)n(Cc3ccc(N(C)C(=O)OC(C)C)cc3Cl)c2n1 [Example 96, 3-(2-chloro-4-(N-methyl-N-(isopropoxycarbonyl)amino)benzyl)-2-methyl-5-(1-pentanesulfonylcarbamoyl)-3H-imidazo[4,5-b]pyridine] | 151 to 152
